Earlier results as cited in patent publication EP3581172B1, “A PHARMACEUTICAL COMPOSITION WITH ENHANCED BIOAVAILABILITY CONTAINING A MEDICAL HERBAL EXTRACT” (TFLL Pharmaceutical Food Supplements and Cosmetic Products …, priority 2018, dated 2019).
Where two headings read alike, the source gives them in different places.

What was measured:
[1] = system: colon cancer stimulated by 1,2-dimethylhydrazine (DMH)
breast cancer = conditions: topical curcumin ointment; 7 breast cancer patients
adenoma = conditions: rats
[2] = system: esophageal carcinogenesis; conditions: rats, by diet (500 ppm)

For `COc1cc(CCC(=O)CC(=O)CCc2ccc(O)c(OC)c2)ccc1O` [THC, tetrahydrokurkuminin], the “effect on upper and lower half sections of colon crypts” value [1] is listed as “significant decrease”.
For `COc1cc(/C=C/C(=O)CC(=O)/C=C/c2ccc(O)c(OC)c2)ccc1O` [curcumin, (1E,6E)-1,7-bis (4-hydroxy-3-methoxyphenyl)-1,6-heptadiene-3,5-dione], the “positive responses (significant reduction in lesion size, pain, itching and leaks), share of patients” value (breast cancer) is listed as 71%, the water solubility is listed as “almost negligible” and the decrease in adenoma (adenoma; by diet 0.2% for 15 weeks) is listed as 39%. For the same molecule, the decrease in adenoma (adenoma; by diet 0.5% for 15 weeks) was 40%, the esophageal carcinogenesis inhibited ([2]; maintenance dose) was 33% and the esophageal carcinogenesis inhibited ([2]; onset dose) was 27%.
In the case of `COc1ccc(/C=C/C(=O)CC(=O)/C=C/c2ccc(OC)c(OC)c2)cc1OC` [dimethoxycurcumin], the “reducing proliferation and stimulating apoptosis, compared to curcumin” value (HCT116 cells) is given as “more effective”.
